US9006450B2 (Boehringer Ingelheim International GmbH, priority 2010, dated 2015)

Biological target: T1, human ACC2 (Homo sapiens, UniProt O00763)
T1 construct: made in house; host or cells: insect cells (baculoviral expression system)
Test: ACC2 assay, spectrophotometric 384 well assay (NADH-linked, coupled lactate dehydrogenase/pyruvate kinase)
Type: biochemical
Conditions: ACC2 assay, hACC2 construct lacking 128 N-terminal amino acids, 25° C., 340 nm; read-out: IC50
How it was run: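 Human ACC2 lacking N-terminal 128 aa, baculovirus/insect-cell expressed, anion-exchange purified; 100 mM Tris pH 7.5, 10 mM citrate, 25 mM KHCO3, 1% DMSO. Started with 200 μM NADH and acetyl-CoA plus 500 μM ATP; PK/LDH-coupled A340 decrease read 15 min at 25° C. IC50 by nonlinear fit of low-control-subtracted slopes.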

T1 sequence (O00763 129-2458 limits assumed): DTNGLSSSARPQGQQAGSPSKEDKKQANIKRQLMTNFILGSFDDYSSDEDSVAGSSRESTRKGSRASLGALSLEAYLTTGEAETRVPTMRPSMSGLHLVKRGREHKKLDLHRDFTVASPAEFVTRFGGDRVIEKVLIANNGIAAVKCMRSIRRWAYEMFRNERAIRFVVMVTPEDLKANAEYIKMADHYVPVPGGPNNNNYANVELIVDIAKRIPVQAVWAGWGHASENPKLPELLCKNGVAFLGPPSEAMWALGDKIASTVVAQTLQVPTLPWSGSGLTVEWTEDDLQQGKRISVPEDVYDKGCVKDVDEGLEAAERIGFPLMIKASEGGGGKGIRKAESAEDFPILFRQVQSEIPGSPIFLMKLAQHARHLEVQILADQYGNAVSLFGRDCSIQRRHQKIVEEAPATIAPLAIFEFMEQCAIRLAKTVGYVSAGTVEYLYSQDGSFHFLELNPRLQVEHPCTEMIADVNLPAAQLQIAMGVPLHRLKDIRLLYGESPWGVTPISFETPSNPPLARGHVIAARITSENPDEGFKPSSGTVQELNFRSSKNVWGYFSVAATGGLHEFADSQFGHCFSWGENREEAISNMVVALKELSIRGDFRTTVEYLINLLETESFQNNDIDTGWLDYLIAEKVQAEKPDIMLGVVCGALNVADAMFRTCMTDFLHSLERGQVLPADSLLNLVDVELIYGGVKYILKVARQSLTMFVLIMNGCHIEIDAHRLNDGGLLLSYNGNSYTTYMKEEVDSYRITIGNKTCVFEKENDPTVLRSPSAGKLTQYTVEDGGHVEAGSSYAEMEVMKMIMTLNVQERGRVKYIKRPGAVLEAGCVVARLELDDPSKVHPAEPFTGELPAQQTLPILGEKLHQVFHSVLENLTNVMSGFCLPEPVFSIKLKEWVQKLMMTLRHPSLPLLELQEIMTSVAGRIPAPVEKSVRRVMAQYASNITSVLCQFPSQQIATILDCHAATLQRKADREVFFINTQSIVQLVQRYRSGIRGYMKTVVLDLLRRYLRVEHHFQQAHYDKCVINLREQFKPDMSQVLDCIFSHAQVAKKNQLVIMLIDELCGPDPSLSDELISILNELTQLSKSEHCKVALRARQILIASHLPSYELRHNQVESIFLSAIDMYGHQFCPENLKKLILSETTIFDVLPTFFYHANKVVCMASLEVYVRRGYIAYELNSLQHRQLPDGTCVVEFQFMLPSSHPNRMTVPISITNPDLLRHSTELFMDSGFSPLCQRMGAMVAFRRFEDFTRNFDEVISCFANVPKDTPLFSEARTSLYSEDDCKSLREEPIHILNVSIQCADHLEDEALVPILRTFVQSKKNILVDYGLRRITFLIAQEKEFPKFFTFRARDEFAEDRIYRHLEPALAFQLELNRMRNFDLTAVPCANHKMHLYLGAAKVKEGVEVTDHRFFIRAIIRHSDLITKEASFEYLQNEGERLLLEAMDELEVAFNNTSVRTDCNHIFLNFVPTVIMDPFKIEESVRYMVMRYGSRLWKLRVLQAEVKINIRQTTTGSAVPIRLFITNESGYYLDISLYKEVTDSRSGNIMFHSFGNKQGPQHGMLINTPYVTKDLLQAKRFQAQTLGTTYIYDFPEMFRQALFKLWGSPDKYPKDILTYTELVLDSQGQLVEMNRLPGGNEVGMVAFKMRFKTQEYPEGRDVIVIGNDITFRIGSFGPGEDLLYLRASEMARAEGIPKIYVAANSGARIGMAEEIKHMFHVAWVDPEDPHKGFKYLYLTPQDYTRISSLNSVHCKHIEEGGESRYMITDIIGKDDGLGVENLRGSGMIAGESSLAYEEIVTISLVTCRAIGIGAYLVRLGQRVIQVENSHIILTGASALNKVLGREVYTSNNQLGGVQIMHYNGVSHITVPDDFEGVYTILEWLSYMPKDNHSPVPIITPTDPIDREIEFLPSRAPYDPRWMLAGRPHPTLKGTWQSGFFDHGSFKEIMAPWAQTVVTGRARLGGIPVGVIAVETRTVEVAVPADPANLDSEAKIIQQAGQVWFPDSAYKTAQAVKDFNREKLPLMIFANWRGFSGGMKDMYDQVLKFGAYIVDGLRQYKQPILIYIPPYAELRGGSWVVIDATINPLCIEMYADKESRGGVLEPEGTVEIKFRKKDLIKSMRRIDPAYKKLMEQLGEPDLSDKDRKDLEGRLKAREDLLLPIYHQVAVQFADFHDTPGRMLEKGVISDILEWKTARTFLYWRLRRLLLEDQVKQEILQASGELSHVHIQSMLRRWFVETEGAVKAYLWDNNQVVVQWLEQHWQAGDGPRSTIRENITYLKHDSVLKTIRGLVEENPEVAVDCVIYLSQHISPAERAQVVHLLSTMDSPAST

Compound | IC50
CCNc1nccc(N2CCC(c3ccc([C@H](C)NC(C)=O)cc3)CC2)n1 [Example 11.50] | 4200 nM
CCNc1cc(N2CCC(c3ccc([C@H](C)NC(C)=O)cc3)CC2)ncn1 [Example 11.51] | 7800 nM
CC(=O)N[C@@H](C)c1ccc(C2CCN(c3cc(-n4ccc(=N)cc4)ncn3)CC2)cc1 [Example 11.52] | 18500 nM
COc1ccc(Nc2cc(N3CCC(c4ccc([C@H](C)NC(C)=O)cc4)CC3)ncn2)cc1 [Example 11.53] | 6000 nM
COc1ccc(Nc2nccc(N3CCC(c4ccc([C@H](C)NC(C)=O)cc4)CC3)n2)cc1 [Example 11.54] | 3700 nM
CC(=O)N[C@@H](C)c1ccc(C2CCN(c3cc(NCc4ccccc4)ncn3)CC2)cc1 [Example 11.55] | 3700 nM
CC(=O)N[C@@H](C)c1ccc(C2CCN(c3ccnc(NCc4ccccc4)n3)CC2)cc1 [Example 11.56] | 2300 nM
CC(=O)N[C@@H](C)c1ccc(C2CCN(c3cc(N4CCCCC4)ncn3)CC2)cc1 [Example 11.57] | 420 nM
CC(=O)N[C@@H](C)c1ccc(C2CCN(c3ccnc(N4CCCCC4)n3)CC2)cc1 [Example 11.58] | 260 nM
CC(=O)N[C@@H](C)c1ccc(C2CCN(c3cc(NCc4ccco4)ncn3)CC2)cc1 [Example 11.59] | 6100 nM
CC(=O)N[C@@H](C)c1ccc(C2CCN(c3ccnc(NCc4ccco4)n3)CC2)cc1 [Example 11.60] | 5300 nM
CC(=O)N[C@@H](C)c1ccc(C2CCN(c3ccnc(NC4CCCC4)n3)CC2)cc1 [Example 11.61] | 1300 nM
CCCCNc1cc(N2CCC(c3ccc([C@H](C)NC(C)=O)cc3)CC2)ncn1 [Example 11.62] | 3300 nM
CCCCNc1nccc(N2CCC(c3ccc([C@H](C)NC(C)=O)cc3)CC2)n1 [Example 11.63] | 2000 nM
COCCNc1nccc(N2CCC(c3ccc([C@H](C)NC(C)=O)cc3)CC2)n1 [Example 11.64] | 17900 nM
CC(=O)N[C@@H](C)c1ccc(C2CCN(c3cc(NCC(C)C)ncn3)CC2)cc1 [Example 11.65] | 4700 nM
CC(=O)N[C@@H](C)c1ccc(C2CCN(c3ccnc(NCC(C)C)n3)CC2)cc1 [Example 11.66] | 2200 nM
CC(=O)N[C@@H](C)c1ccc(C2CCN(c3cc(NCc4ccccn4)ncn3)CC2)cc1 [Example 11.67] | 26400 nM
CCCN(C)c1cc(N2CCC(c3ccc([C@H](C)NC(C)=O)cc3)CC2)ncn1 [Example 11.68] | 610 nM
CCCN(C)c1nccc(N2CCC(c3ccc([C@H](C)NC(C)=O)cc3)CC2)n1 [Example 11.69] | 200 nM
CC(=O)N[C@@H](C)c1ccc(C2CCN(c3cc(NCCC(C)C)ncn3)CC2)cc1 [Example 11.70] | 4500 nM

Compound | IC50
CC(=O)N[C@@H](C)c1ccc(C2CCN(c3ccnc(NCCC(C)C)n3)CC2)cc1 [Example 11.71] | 2300 nM
CC(=O)N[C@@H](C)c1ccc(C2CCN(c3cc(NCCc4ccccc4)ncn3)CC2)cc1 [Example 11.72] | 10500 nM
CC(=O)N[C@@H](C)c1ccc(C2CCN(c3ccnc(NC4CCOCC4)n3)CC2)cc1 [Example 11.73] | 15600 nM
CC(=O)N[C@@H](C)c1ccc(C2CCN(c3cc(NC4CCOCC4)ncn3)CC2)cc1 [Example 11.74] | 8300 nM
CC(=O)N[C@@H](C)c1ccc(C2CCN(c3ccnc(N[C@H](C)C(C)C)n3)CC2)cc1 [Example 11.75] | 3800 nM
CC(=O)N[C@@H](C)c1ccc(C2CCN(c3cc(N[C@H](C)C(C)C)ncn3)CC2)cc1 [Example 11.76] | 6000 nM
CC(=O)N[C@@H](C)c1ccc(C2CCN(c3cc(N4CC5CCCC5C4)ncn3)CC2)cc1 (stereo partly drawn) [Example 11.77] | 280 nM
CC(=O)N[C@@H](C)c1ccc(C2CCN(c3ccnc(N4CC5CCCC5C4)n3)CC2)cc1 (stereo partly drawn) [Example 11.78] | 610 nM
COC1CN(c2cc(N3CCC(c4ccc([C@H](C)NC(C)=O)cc4)CC3)ncn2)C1 [Example 11.79] | 4000 nM
COC1CN(c2nccc(N3CCC(c4ccc([C@H](C)NC(C)=O)cc4)CC3)n2)C1 [Example 11.80] | 2300 nM
COC1CCN(c2cc(N3CCC(c4ccc([C@H](C)NC(C)=O)cc4)CC3)ncn2)CC1 [Example 11.81] | 2300 nM
CC(=O)N[C@@H](C)c1ccc(C2CCN(c3cc(N(C)Cc4ccccc4)ncn3)CC2)cc1 [Example 11.82] | 870 nM
CC(=O)N[C@@H](C)c1ccc(C2CCN(c3ccnc(N(C)Cc4ccccc4)n3)CC2)cc1 [Example 11.83] | 410 nM
CNc1nccc(N2CCC(c3ccc([C@H](C)NC(C)=O)cc3)CC2)n1 [Example 11.84] | 6500 nM
CNc1cc(N2CCC(c3ccc([C@H](C)NC(C)=O)cc3)CC2)ncn1 [Example 11.85] | 13900 nM
CC(=O)N[C@@H](C)c1ccc(C2CCN(c3ccnc(N(C)C4CC4)n3)CC2)cc1 [Example 11.86] | 770 nM
CC(=O)N[C@@H](C)c1ccc(C2CCN(c3cc(N(C)C4CC4)ncn3)CC2)cc1 [Example 11.87] | 790 nM
CC(=O)N[C@@H](C)c1ccc(C2CCN(c3ccnc(N4Cc5ccccc5C4)n3)CC2)cc1 [Example 11.88] | 1600 nM
CC(=O)N[C@@H](C)c1ccc(C2CCN(c3cc(N4Cc5ccccc5C4)ncn3)CC2)cc1 [Example 11.89] | 760 nM
CC(=O)N[C@@H](C)c1ccc(C2CCN(c3ccnc(N(C)CC4CC4)n3)CC2)cc1 [Example 11.90] | 230 nM
CC(=O)N[C@@H](C)c1ccc(C2CCN(c3cc(N(C)CC4CC4)ncn3)CC2)cc1 [Example 11.91] | 440 nM

Further lines, results first:

IC50 | Compound
320 nM | CC(=O)N[C@@H](C)c1ccc(C2CCN(c3cc(N4CCC5(CC5)C4)ncn3)CC2)cc1 [Example 11.92]
550 nM | CC(=O)N[C@@H](C)c1ccc(C2CCN(c3ccnc(N4CCC5(CC5)C4)n3)CC2)cc1 [Example 11.93]
1700 nM | CC(=O)N[C@@H](C)c1ccc(C2CCN(c3ccnc(NCC4CCC4)n3)CC2)cc1 [Example 11.94]
2000 nM | CC(=O)N[C@@H](C)c1ccc(C2CCN(c3cc(NCC4CCC4)ncn3)CC2)cc1 [Example 11.95]
350 nM | CC(=O)N[C@@H](C)c1ccc(C2CCN(c3ccnc(N(C)C4CCCC4)n3)CC2)cc1 [Example 11.96]
330 nM | CC(=O)N[C@@H](C)c1ccc(C2CCN(c3cc(N(C)C4CCCC4)ncn3)CC2)cc1 [Example 11.97]
660 nM | CC(=O)N[C@@H](C)c1ccc(C2CCN(c3ccnc(N4CCC4)n3)CC2)cc1 [Example 11.98]
2500 nM | CC(=O)N[C@@H](C)c1ccc(C2CCN(c3cc(N4CCC4)ncn3)CC2)cc1 [Example 11.99]
5200 nM | CC(=O)N[C@@H](C)c1ccc(C2CCN(c3ccnc(NCc4ccoc4)n3)CC2)cc1 [Example 11.100]
4000 nM | CC(=O)N[C@@H](C)c1ccc(C2CCN(c3cc(NCc4ccoc4)ncn3)CC2)cc1 [Example 11.101]
3200 nM | CC(=O)N[C@@H](C)c1ccc(C2CCN(c3ccnc(NCCF)n3)CC2)cc1 [Example 11.102]
2600 nM | CC(=O)N[C@@H](C)c1ccc(C2CCN(c3cc(NC4CCCC4)ncn3)CC2)cc1 [Example 11.103]
600 nM | CC(=O)N[C@@H](C)c1ccc(C2CCN(c3ccnc(N(C)C)n3)CC2)cc1 [Example 11.104]
1700 nM | CC(=O)N[C@@H](C)c1ccc(C2CCN(c3cc(N(C)C)ncn3)CC2)cc1 [Example 11.105]
1600 nM | CC(=O)N[C@@H](C)c1ccc(C2CCN(c3ccnc(NCCC4CC4)n3)CC2)cc1 [Example 11.106]
2400 nM | CC(=O)N[C@@H](C)c1ccc(C2CCN(c3cc(NCCC4CC4)ncn3)CC2)cc1 [Example 11.107]
110 nM | CC(=O)N[C@@H](C)c1ccc(C2CCN(c3cc(OCC4CC4)ncn3)CC2)cc1 [Example 11.108]

IC50 | Compound
80 nM | CC(=O)N[C@@H](C)c1ccc(C2CCN(c3cc(OC4CCC4)ncn3)CC2)cc1 [Example 11.109]
230 nM | CC(=O)N[C@@H](C)c1ccc(C2CCN(c3ccnc(OC4CCC4)n3)CC2)cc1 [Example 11.110]
640 nM | CC(=O)N[C@@H](C)c1ccc(C2CCN(c3ccnc(NCC4CC4)n3)CC2)cc1 [Example 11.111]
1100 nM | CC(=O)N[C@@H](C)c1ccc(C2CCN(c3cc(NCC4CC4)ncn3)CC2)cc1 [Example 11.112]
200 nM | CC(=O)N[C@@H](C)c1ccc(C2CCN(c3cc(N4CCCC4)ncn3)CC2)cc1 [Example 11.113]
180 nM | CC(=O)N[C@@H](C)c1ccc(C2CCN(c3ccnc(N4CCCC4)n3)CC2)cc1 [Example 11.114]
1500 nM | CC(=O)N[C@@H](C)c1ccc(C2CCN(c3ccnc(NC4CC4)n3)CC2)cc1 [Example 11.115]
14500 nM | CC(=O)N[C@@H](C)c1ccc(C2CCN(c3cc(O)ncn3)CC2)cc1 [Example 11.116]
4300 nM | CC(=O)N[C@@H](C)c1ccc(C2CCN(c3ccnc(Nc4cncnc4)n3)CC2)cc1 [Example 11.117]
240 nM | CC(=O)N[C@@H](C)c1ccc(C2CCN(c3ccnc(Oc4ccccc4)n3)CC2)cc1 [Example 11.119]
280 nM | C[C@H](NC(=O)C1CC1)c1ccc(C2CCN(c3nc(Oc4ccc(F)cc4)ncc3F)CC2)cc1 [Example 11.120]
470 nM | C[C@H](NC(=O)C1CC1)c1ccc(C2CCN(c3nc(N4CCCC4)ncc3F)CC2)cc1 [Example 11.121]
1400 nM | C[C@H](NC(=O)C1CC1)c1ccc(C2CCN(c3nc(N4CCCC4)ncc3C#N)CC2)cc1 [Example 11.122]
200 nM | C[C@H](NC(=O)C1CC1)c1ccc(C2CCN(c3ncnc(N4CCCC4)c3F)CC2)cc1 [Example 11.123]
880 nM | C[C@H](NC(=O)C1CC1)c1ccc(C2CCN(c3nc(OC4CCC4)ncc3F)CC2)cc1 [Example 11.124]
340 nM | C[C@H](NC(=O)C1CC1)c1ccc(C2CCN(c3nc(N(C)CC4CC4)ncc3F)CC2)cc1 [Example 11.125]
